According to the supplement of paper PMC10307832:

How the values were obtained:
Test in all cases: relative viability (nuclei count vs DMSO), 5 days (fraction); higher = more cells survive
[1] = tested on: NCI-H2228
How it was run: (§1)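 Each reported value is a median over duplicate plates. It expresses relative viability: treated-well nuclei count divided by vehicle-well nuclei count. Lung cancer cell lines in 1536-well plates were dosed by pin tool a day after seeding, alone with one drug or with a fixed anchor-drug dose plus five library-drug doses (not always all listed) in √10 steps, and nuclei were counted after 5 days.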

[2] = tested on: NCI-H1944
How it was run: as §1

[3] = tested on: HCC-366
How it was run: as §1

[4] = tested on: NCI-H2405
How it was run: as §1

[5] = tested on: NCI-H1793
How it was run: as §1

[6] = tested on: NCI-H1755
How it was run: as §1

[7] = tested on: NCI-H460
How it was run: as §1

[8] = tested on: NCI-H3122
How it was run: as §1

[9] = tested on: LU99A
How it was run: as §1

[10] = tested on: NCI-H1395
How it was run: as §1

[11] = tested on: LOU-NH91
How it was run: as §1

[12] = tested on: UMC-11
How it was run: as §1

[13] = tested on: NCI-H2087
How it was run: as §1

[14] = tested on: NCI-H1651
How it was run: as §1

[15] = tested on: ABC-1
How it was run: as §1

[16] = tested on: CAL-12T
How it was run: as §1

[17] = tested on: NCI-H2170
How it was run: as §1

[18] = tested on: HCC-78
How it was run: as §1

[19] = tested on: ChaGo-K-1
How it was run: as §1

[20] = tested on: RERF-LC-KJ
How it was run: as §1

[21] = tested on: PC-3 [JPC-3]
How it was run: as §1

[22] = tested on: LC-2-ad
How it was run: as §1

O=c1cc(N2CCOCC2)oc2c(-c3cccc4c3sc3ccccc34)cccc12 + CC(=O)c1c(C)c2cnc(Nc3ccc(N4CCNCC4)cn3)nc2n(C2CCCC2)c1=O [Palbociclib] (partner 0.5 µM)
relative viability ([1]; first compound 0.01 µM): 0.943 | relative viability ([1]; first compound 0.03162 µM): 0.749 | relative viability ([1]; first compound 0.1 µM): 0.802 | relative viability ([1]; first compound 0.3162 µM): 0.683 | relative viability ([1]; first compound 1 µM): 0.83 | relative viability ([2]; first compound 0.01 µM): 0.331 | relative viability ([2]; first compound 0.03162 µM): 0.332 | relative viability ([2]; first compound 0.1 µM): 0.363 | relative viability ([2]; first compound 0.3162 µM): 0.338 | relative viability ([2]; first compound 1 µM): 0.32 | relative viability ([3]; first compound 0.01 µM): 0.371 | relative viability ([3]; first compound 0.03162 µM): 0.417 | relative viability ([3]; first compound 0.1 µM): 0.409 | relative viability ([3]; first compound 0.3162 µM): 0.367 | relative viability ([3]; first compound 1 µM): 0.382 | relative viability ([4]; first compound 0.01 µM): 0.566 | relative viability ([4]; first compound 0.03162 µM): 0.542 | relative viability ([4]; first compound 0.1 µM): 0.531 | relative viability ([4]; first compound 0.3162 µM): 0.513 | relative viability ([4]; first compound 1 µM): 0.527 | relative viability ([5]; first compound 0.01 µM): 0.299 | relative viability ([5]; first compound 0.03162 µM): 0.295 | relative viability ([5]; first compound 0.1 µM): 0.314 | relative viability ([5]; first compound 0.3162 µM): 0.266 | relative viability ([5]; first compound 1 µM): 0.234 | relative viability ([6]; first compound 0.01 µM): 0.475 | relative viability ([6]; first compound 0.03162 µM): 0.455 | relative viability ([6]; first compound 0.1 µM): 0.488 | relative viability ([6]; first compound 0.3162 µM): 0.457 | relative viability ([6]; first compound 1 µM): 0.456 | relative viability ([7]; first compound 0.01 µM): 0.178 | relative viability ([7]; first compound 0.03162 µM): 0.18 | relative viability ([7]; first compound 0.1 µM): 0.198 | relative viability ([7]; first compound 0.3162 µM): 0.215 | relative viability ([7]; first compound 1 µM): 0.135 | relative viability ([8]; first compound 0.01 µM): 0.171 | relative viability ([8]; first compound 0.03162 µM): 0.183 | relative viability ([8]; first compound 0.1 µM): 0.167 | relative viability ([8]; first compound 0.3162 µM): 0.177 | relative viability ([8]; first compound 1 µM): 0.161 | relative viability ([9]; first compound 0.01 µM): 0.393 | relative viability ([9]; first compound 0.03162 µM): 0.414 | relative viability ([9]; first compound 0.1 µM): 0.414 | relative viability ([9]; first compound 0.3162 µM): 0.379 | relative viability ([9]; first compound 1 µM): 0.488 | relative viability ([10]; first compound 0.03162 µM): 0.547 | relative viability ([10]; first compound 0.1 µM): 0.634 | relative viability ([10]; first compound 0.3162 µM): 0.631 | relative viability ([10]; first compound 1 µM): 0.637 | relative viability ([11]; first compound 0.01 µM): 0.525 | relative viability ([11]; first compound 0.03162 µM): 0.527 | relative viability ([11]; first compound 0.1 µM): 0.522 | relative viability ([11]; first compound 0.3162 µM): 0.537 | relative viability ([11]; first compound 1 µM): 0.574 | relative viability ([12]; first compound 0.01 µM): 0.309 | relative viability ([12]; first compound 0.03162 µM): 0.294 | relative viability ([12]; first compound 0.1 µM): 0.32 | relative viability ([12]; first compound 0.3162 µM): 0.347 | relative viability ([12]; first compound 1 µM): 0.324 | relative viability ([13]; first compound 0.01 µM): 0.218 | relative viability ([13]; first compound 0.03162 µM): 0.245 | relative viability ([13]; first compound 0.1 µM): 0.221 | relative viability ([13]; first compound 0.3162 µM): 0.229 | relative viability ([13]; first compound 1 µM): 0.217 | relative viability ([14]; first compound 0.01 µM): 0.528 | relative viability ([14]; first compound 0.03162 µM): 0.486 | relative viability ([14]; first compound 0.1 µM): 0.555 | relative viability ([14]; first compound 0.3162 µM): 0.555 | relative viability ([14]; first compound 1 µM): 0.513 | relative viability ([15]; first compound 0.01 µM): 0.644 | relative viability ([15]; first compound 0.03162 µM): 0.797 | relative viability ([15]; first compound 0.1 µM): 0.699 | relative viability ([15]; first compound 0.3162 µM): 0.619 | relative viability ([15]; first compound 1 µM): 0.578 | relative viability ([16]; first compound 0.01 µM): 0.444 | relative viability ([16]; first compound 0.03162 µM): 0.401 | relative viability ([16]; first compound 0.1 µM): 0.587 | relative viability ([16]; first compound 0.3162 µM): 0.528 | relative viability ([16]; first compound 1 µM): 0.436 | relative viability ([17]; first compound 0.01 µM): 0.424 | relative viability ([17]; first compound 0.03162 µM): 0.422 | relative viability ([17]; first compound 0.1 µM): 0.408 | relative viability ([17]; first compound 0.3162 µM): 0.405 | relative viability ([17]; first compound 1 µM): 0.371 | relative viability ([18]; first compound 0.01 µM): 0.493 | relative viability ([18]; first compound 0.03162 µM): 0.482 | relative viability ([18]; first compound 0.1 µM): 0.437 | relative viability ([18]; first compound 0.3162 µM): 0.5 | relative viability ([18]; first compound 1 µM): 0.446 | relative viability ([19]; first compound 0.01 µM): 0.884 | relative viability ([19]; first compound 0.03162 µM): 0.91 | relative viability ([19]; first compound 0.1 µM): 0.964 | relative viability ([19]; first compound 0.3162 µM): 0.947 | relative viability ([19]; first compound 1 µM): 0.954 | relative viability ([20]; first compound 0.01 µM): 1.06 | relative viability ([20]; first compound 0.03162 µM): 1.1 | relative viability ([20]; first compound 0.1 µM): 1.04 | relative viability ([20]; first compound 0.3162 µM): 1.09 | relative viability ([20]; first compound 1 µM): 1.08 | relative viability ([21]; first compound 0.01 µM): 0.548 | relative viability ([21]; first compound 0.03162 µM): 0.519 | relative viability ([21]; first compound 0.1 µM): 0.306 | relative viability ([21]; first compound 0.3162 µM): 0.557 | relative viability ([21]; first compound 1 µM): 0.511 | relative viability ([22]; first compound 0.01 µM): 0.504 | relative viability ([22]; first compound 0.03162 µM): 0.5 | relative viability ([22]; first compound 0.1 µM): 0.572 | relative viability ([22]; first compound 0.3162 µM): 0.493 | relative viability ([22]; first compound 1 µM): 0.554
